Assay results from article PMC5316400, “Validation of precision-cut liver slices to study drug-induced cholestasis: a transcriptomics approach” (Archives of Toxicology, 2016).
Blank lines part the entries; values can stand above or below the compound they belong to.

Assays:
[1] = system: Genes involved in hepatic cholestasis pathway; assay: Microarray gene expression in human PCLS exposed to cholestatic drugs: hepatic cholestasis pathway genes; conditions: 24 h, 60 μM bile acid mix
Method: (§1) Precision-cut liver slices of 5 mm diameter and 250 μm thickness were prepared (de Graaf et al. [2010]). At this thickness, full penetration of substrates has been shown. PCLS were made using the Krumdieck tissue slicer (Alabama R&D, Munford, AL, USA) in ice-cold Krebs buffer at pH 7.42, enriched with glucose to a final concentration of 25 mM, saturated with carbogen (95 % O2/5 % CO2). Immediately after the slices were made, they were placed in ice-cold University of Wisconsin organ preservation solution (UW, Dupont Critical Care, Waukegan, IL, USA) and stored on ice until the beginning of the experiment. Slices were pre-incubated individually in 12-well plates in 1.3 ml of Williams Medium E with glutamax-1 (Gibco, Invitrogen, Paisley, Scotland) supplemented with 25 mM D-glucose and 50 μg/ml gentamycin (Gibco, Invitrogen, Paisley, Scotland). In the incubator (Sanyo CO2/O2 Incubator, PANASONIC, Secaucus, NJ, USA), the plates were gently shaken (90 times/min) for 1 h under 80 % O2 and 5 % CO2 atmosphere at 37 °C. This pre-incubation allows the slices to restore their ATP levels. […] The plates were incubated under the same conditions for 24 h. All incubation conditions were carried out in triplicate. Each experiment was performed in slices of 6 different human livers (Table 1). Slices were harvested for ATP assay in 100 mM Tris buffer with 2 mM EDTA and for RNA isolation in RNAlater. The bile acid mix was added to the medium in order to create an environment similar to the physiological concentration in the portal vein. The composition of the serum bile acids was according to Scherer et al. ([2009]). Pilot experiments were performed to find out the non-toxic concentration of the bile acid mix.
(§2) Maxwell® 16 LEV Total RNA purification kit (Promega, The Netherlands) with Maxwell® 16 LEV Instrument was used to isolate RNA from the samples. Immediately after isolation, the RNA quality was assessed by measuring the 260/280 and 260/230 ratios, and the concentration was measured with the ND-1000 spectrophotometer (Fisher Scientific, Landsmeer, The Netherlands). The quality (RIN value) and quantity of the RNA were determined by high-throughput Caliper GX LabChip RNA kit (Caliper).
(§3) Ambion Illumina Total Prep RNA kit was used to transcribe 300 ng RNA to cRNA according to the manufacturer’s instructions. A total of 750 ng of cRNA was hybridized at 58 °C for 16 h to the Illumina HumanHT-12 v4 Expression BeadChips. BeadChips were scanned using Iscan software, and IDAT files were generated (Illumina, San Diego, CA, USA).
(§4) GenomeStudio software (Illumina) was used to read the IDAT files and generate raw expression values. The ArrayAnalysis web service (www.arrayanalysis.org/) was used for further preprocessing the data, which uses lumi R package (Eijssen et al. [2013]). Raw gene expression data were background-corrected (bgAdjust), variance-stabilized (VST) and normalized by quantile normalization. After normalization, the data were corrected for batch differences owing to RNA isolation and hybridization using the ComBat method implemented in the swamp package in R (Lauss et al. [2013]). Differentially expressed genes in slices exposed to the cholestatic drugs in the presence of bile acids versus the slices exposed to vehicle (DMSO) in the presence of bile acids were identified using the unpaired moderated t test in the limma package (Ritchie et al. [2015]). Genes that are regulated with a criterion of fold change of 1.5 (≤ or ≥1.5), and FDR-corrected p value ≤0.05 (Benjamini and Hochberg method) were chosen for pathway analysis. To compare our data with the scarcely available human in vivo data, human in vivo late-stage cholestasis data were downloaded from the Gene Expression Omnibus database (GSE46960).

[2] = system: Genes involved in the FXR pathway; assay: Microarray gene expression in human PCLS exposed to cholestatic drugs: FXR pathway genes; conditions: 24 h, 60 μM bile acid mix
Method: as §1, §2, §3, §4

[3] = system: Genes involved in unfolded protein response (UPR); assay: Microarray gene expression in human PCLS exposed to cholestatic drugs: unfolded protein response genes; type: cell-based; conditions: 24 h, 60 μM bile acid mix
Method: as §1, §2, §3, §4

[4] = system: human precision-cut liver slices (PCLS); assay: Transcriptomics of human PCLS: differentially regulated genes; type: cell-based; conditions: fold change of 1.5 and adjusted p value 0.05, 24 h, 60 μM bile acid mix
Method: as §1, §2, §3, §4

[5] = adult patients, therapeutic dose, systemic blood; no reference given; cited from earlier work
[6] = C max in systemic blood of adult patients after a therapeutic dose; conditions: highest toxic concentration tested in human PCLS vs C max in adult patients

Structure (SMILES): S=C=Nc1cccc2ccccc12 [AN, Alpha-naphthylisothiocyanate]
ABCB4 fold change ([1]; 75 μM): −2.1
ABCB11 fold change ([1]; 75 μM): −1.3
ABCC3 fold change ([1]; 75 μM): −1.2
ABCG5 fold change ([1]; 75 μM): −1.6
ABCG8 fold change ([1]; 75 μM): −2.3
CYP8B1 fold change ([1]; 75 μM): −3.4
CYP27A1 fold change ([1]; 75 μM): −1.4
GCGR fold change ([1]; 75 μM): −1.9
IL1B fold change ([1]; 75 μM): −1.2
IL1RL1 fold change ([1]; 75 μM): 2.3
IL1RN fold change ([1]; 75 μM): 1.1
IRAK2 fold change ([1]; 75 μM): 1.6
JUN fold change ([1]; 75 μM): 1.3
NR0B2 fold change ([1]; 75 μM): −1.2
NR1H3 fold change ([1]; 75 μM): −1.1
NR1H4 fold change ([1]; 75 μM): −1.1
PPRC1 fold change ([1]; 75 μM): 1.6
RXRA fold change ([1]; 75 μM): −1.6
SLC22A7 fold change ([1]; 75 μM): −2.9
TNFRSF1B fold change ([1]; 75 μM): −1.5
ABCB4 fold change ([2]; 75 μM): −2.1
ABCB11 fold change ([2]; 75 μM): −1.8
ABCG5 fold change ([2]; 75 μM): −1.5
ABCG8 fold change ([2]; 75 μM): −2.3
APOC2 fold change ([2]; 75 μM): −1.8
APOC4 fold change ([2]; 75 μM): −1.8
APOF fold change ([2]; 75 μM): −1.9
BAAT fold change ([2]; 75 μM): −1.8
C3 fold change ([2]; 75 μM): −1.7
CYP8B1 fold change ([2]; 75 μM): −3.5
CYP27A1 fold change ([2]; 75 μM): −1.3
FASN fold change ([2]; 75 μM): −1.9
FBP1 fold change ([2]; 75 μM): −1.8
FETUB fold change ([2]; 75 μM): −2.0
FGA fold change ([2]; 75 μM): −2.1
ITIH4 fold change ([2]; 75 μM): −1.9
KNG1 fold change ([2]; 75 μM): −2.3
NR0B2 (SHP) fold change ([2]; 75 μM): −1.8
NR1H3 (LXR) fold change ([2]; 75 μM): −1.8
NR1H4 (FXR) fold change ([2]; 75 μM): −1.8
PON1 fold change ([2]; 75 μM): −2.0
RXRA fold change ([2]; 75 μM): −1.5
SCARB1 fold change ([2]; 75 μM): −2.2
SDC1 fold change ([2]; 75 μM): −2.0
SERPINF2 fold change ([2]; 75 μM): −1.8
SLC22A7 fold change ([2]; 75 μM): −2.9
SLC51B fold change ([2]; 75 μM): −1.9
SULT2A1 fold change ([2]; 75 μM): −2.1
ATF4 fold change ([3]; 75 μM): 2.3
DDIT3 (CHOP) fold change ([3]; 75 μM): 2.9
DNAJB9 fold change ([3]; 75 μM): 2.7
ERN1 fold change ([3]; 75 μM): 1.5
HSPA9 fold change ([3]; 75 μM): 1.9
HSPH1 fold change ([3]; 75 μM): 2.0
INSIG1 fold change ([3]; 75 μM): −2.5
NFE2L2 fold change ([3]; 75 μM): 1.5
SYVN1 fold change ([3]; 75 μM): 1.5
Number of regulated genes ([4]; 25 μM): 2
Number of regulated genes ([4]; 50 μM): 183
Number of regulated genes ([4]; 75 μM): 458

CYP8B1 fold change ([1]; 30 μM): −2.3
CYP8B1 fold change ([2]; 30 μM): −2.3
Structure (SMILES): CN(C)CCCN1c2ccccc2Sc2ccc(Cl)cc21 [CP, chlorpromazine]
ABCB4 fold change ([1]; 30 μM): −2.0
ABCB11 fold change ([1]; 30 μM): −1.4
ABCC3 fold change ([1]; 30 μM): −1.1
ABCG5 fold change ([1]; 30 μM): −1.4
ABCG8 fold change ([1]; 30 μM): −1.7
CYP27A1 fold change ([1]; 30 μM): −1.3
GCGR fold change ([1]; 30 μM): −1.7
IL1B fold change ([1]; 30 μM): −1.1
IL1RL1 fold change ([1]; 30 μM): 1.4
IL1RN fold change ([1]; 30 μM): 1.3
IRAK2 fold change ([1]; 30 μM): 1.2
JUN fold change ([1]; 30 μM): 1.5
NR0B2 fold change ([1]; 30 μM): −1.6
NR1H3 fold change ([1]; 30 μM): −1.2
NR1H4 fold change ([1]; 30 μM): −1.2
PPRC1 fold change ([1]; 30 μM): 1.2
RXRA fold change ([1]; 30 μM): −1.3
SLC22A7 fold change ([1]; 30 μM): −2.6
TNFRSF1B fold change ([1]; 30 μM): 1.0
ABCB4 fold change ([2]; 30 μM): −2.0
ABCB11 fold change ([2]; 30 μM): −1.7
ABCG5 fold change ([2]; 30 μM): −1.4
ABCG8 fold change ([2]; 30 μM): −1.7
APOC2 fold change ([2]; 30 μM): −1.4
APOC4 fold change ([2]; 30 μM): −1.8
APOF fold change ([2]; 30 μM): −1.9
BAAT fold change ([2]; 30 μM): −1.5
C3 fold change ([2]; 30 μM): −1.5
CYP27A1 fold change ([2]; 30 μM): −1.1
FASN fold change ([2]; 30 μM): −1.4
FBP1 fold change ([2]; 30 μM): −2.0
FETUB fold change ([2]; 30 μM): −1.8
FGA fold change ([2]; 30 μM): −1.7
ITIH4 fold change ([2]; 30 μM): −1.4
KNG1 fold change ([2]; 30 μM): −1.8
NR0B2 (SHP) fold change ([2]; 30 μM): −1.3
NR1H3 (LXR) fold change ([2]; 30 μM): −1.3
NR1H4 (FXR) fold change ([2]; 30 μM): −1.4
PON1 fold change ([2]; 30 μM): −1.9
RXRA fold change ([2]; 30 μM): −1.1
SCARB1 fold change ([2]; 30 μM): −1.6
SDC1 fold change ([2]; 30 μM): −1.4
SERPINF2 fold change ([2]; 30 μM): −1.5
SLC22A7 fold change ([2]; 30 μM): −2.6
SLC51B fold change ([2]; 30 μM): −1.9
SULT2A1 fold change ([2]; 30 μM): −1.9
ATF4 fold change ([3]; 30 μM): 1.5
DDIT3 (CHOP) fold change ([3]; 30 μM): 1.2
DNAJB9 fold change ([3]; 30 μM): 1.0
ERN1 fold change ([3]; 30 μM): 1.0
HSPA9 fold change ([3]; 30 μM): 1.1
HSPH1 fold change ([3]; 30 μM): 1.0
INSIG1 fold change ([3]; 30 μM): 1.3
NFE2L2 fold change ([3]; 30 μM): 1.1
SYVN1 fold change ([3]; 30 μM): 1.0
Number of regulated genes ([4]; 10 μM): 1
Number of regulated genes ([4]; 20 μM): 2
Number of regulated genes ([4]; 30 μM): 61
Cmax [5]: 420 nM
toxic concentration used in PCLS study relative to C max [6]: ~ 70 × C max
